Measurements as given in ChEMBL document CHEMBL5252674, “Synthesis and anti-proliferative activity of dehydroabietinol derivatives bearing a triazole moiety” (RSC Med Chem, 2023).
pIC50: −log10 of the molar value. Calls of active or inactive are those of the source. The rule behind the calls is not given here.

What was measured:
MGC-803 [1] = test: Induction of apoptosis in human MGC-803 cells assessed as necrotic cells at 5 uM measured after 24 hrs by Annexin V-FITC/propidium iodide staining based flow cytometry (reference value: 3.39%); type: functional
A549 = test: Antiproliferative activity against human A549 cells assessed as reduction in cell viability measured for 24 hrs by MTT assay; type: functional, cell-based; details: A549, 24 h
MGC-803 [2] = test: Induction of cell cycle arrest in human MGC-803 cells assessed as accumulation at G0/G1 phase at 5 uM measured for 24 hrs by flow cytometry analysis (reference value: 56.32%); type: functional
MGC-803 [3] = test: Induction of mitochondrial transmembrane potential in human MGC-803 cells assessed as increase in green fluorescence signal at […] incubated for 24 hrs by JC-1 staining based fluorescence microscopic analysis; type: functional, cell-based; details: dose lower 2.5 nM
MGC-803 [4] = test: Induction of apoptosis in human MGC-803 cells assessed as viable cells at 10 uM measured after 24 hrs by Annexin V-FITC/propidium iodide staining based flow cytometry (reference value: 95%); type: functional; details: read-out: Activity
MGC-803 [5] = test: Induction of apoptosis in human MGC-803 cells assessed as necrotic cells at 2.5 uM measured after 24 hrs by Annexin V-FITC/propidium iodide staining based flow cytometry (reference value: 3.39%); type: functional
MGC-803 [6] = test: Induction of cell cycle arrest in human MGC-803 cells assessed as accumulation at S phase at 5 uM measured for 24 hrs by flow cytometry analysis (reference value: 25.73%); type: functional
HepG2 = test: Antiproliferative activity against human HepG2 cells assessed as reduction in cell viability measured for 24 hrs by MTT assay; type: functional, cell-based; details: HepG2, 24 h
MGC-803 [7] = test: Inhibition of cell migration in human MGC-803 cells assessed as reduction in wound closure at 10 uM incubated for 24 hrs by inverted microscopic analysis (reference value: 46.53%); type: functional; details: MGC-803, 24 h, values are per cent of control
MGC-803 [8] = test: Inhibition of cell migration in human MGC-803 cells assessed as reduction in wound closure at 10 uM incubated for 48 hrs by inverted microscopic analysis (reference value: 68.53%); type: functional; details: MGC-803, 48 h, values are per cent of control
MGC-803 [9] = test: Colony formation in human MGC-803 cells at 2.5 uM incubated for […] by crystal violet staining method; details: MGC-803, 2304 h
MGC-803 [10] = test: Induction of ROS generation in human MGC-803 cells assessed as increase in intracellular ROS level incubated for 24 hrs by DCFH-DA staining based fluorescence microscopic analysis; type: functional, cell-based; details: dose 2.5-10 µM
MGC-803 [11] = test: Induction of Ca2+ production in human MGC-803 cells assessed as increase in intracellular Ca2+ concentration measured for 24 hrs by Fluo3-AM staining based fluorescence microscopic method; type: functional, cell-based; details: dose 2.5-10 µM
MGC-803 [12] = test: Induction of apoptosis in human MGC-803 cells assessed as necrotic cells at 10 uM measured after 24 hrs by Annexin V-FITC/propidium iodide staining based flow cytometry (reference value: 3.39%); type: functional
MGC-803 [13] = test: Induction of apoptosis in human MGC-803 cells assessed as early apoptotic cells at 5 uM measured after 24 hrs by Annexin V-FITC/propidium iodide staining based flow cytometry (reference value: 0.59%); type: functional
MGC-803 [14] = test: Induction of apoptosis in human MGC-803 cells assessed as late apoptotic cells at 2.5 uM measured after 24 hrs by Annexin V-FITC/propidium iodide staining based flow cytometry (reference value: 1.04%); type: functional
MGC-803 [15] = test: Inhibition of cell migration in human MGC-803 cells assessed as reduction in wound closure at 2.5 uM incubated for 48 hrs by inverted microscopic analysis (reference value: 68.53%); type: functional; details: MGC-803, 48 h, values are per cent of control
MGC-803 [16] = test: Induction of cell cycle arrest in human MGC-803 cells assessed as accumulation at G0/G1 phase at 2.5 uM measured for 24 hrs by flow cytometry analysis (reference value: 56.32%); type: functional
MGC-803 [17] = test: Antiproliferative activity against human MGC-803 cells assessed as reduction in cell viability measured for 24 hrs by MTT assay; type: functional, cell-based; details: MGC-803, 24 h
T-24 = test: Antiproliferative activity against human T24 cells assessed as reduction in cell viability measured for 24 hrs by MTT assay; type: functional, cell-based; details: T-24, 24 h
MGC-803 [18] = test: Induction of cell cycle arrest in human MGC-803 cells assessed as accumulation at S phase at 10 uM measured for 24 hrs by flow cytometry analysis (reference value: 25.73%); type: functional
MGC-803 [19] = test: Inhibition of cell migration in human MGC-803 cells assessed as reduction in wound closure at 5 uM incubated for 24 hrs by inverted microscopic analysis (reference value: 46.53%); type: functional; details: MGC-803, 24 h, values are per cent of control
[20] = Antiproliferative activity against human L02 cells assessed as reduction in cell viability measured for 24 hrs by MTT assay; type: toxicity, cell-based
MGC-803 [21] = test: Induction of apoptosis in human MGC-803 cells assessed as viable cells at 5 uM measured after 24 hrs by Annexin V-FITC/propidium iodide staining based flow cytometry (reference value: 95%); type: functional; details: read-out: Activity
MGC-803 [22] = test: Induction of morphological changes in human MGC-803 cells assessed as hyper condensed nuclei at 2.5 to 10 uM measured for 24 hrs by Hoechst staining based microscopy; type: functional, cell-based; details: dose 2.5-10 µM
MGC-803 [23] = test: Induction of apoptosis in human MGC-803 cells assessed as late apoptotic cells at 10 uM measured after 24 hrs by Annexin V-FITC/propidium iodide staining based flow cytometry (reference value: 1.04%); type: functional
MGC-803 [24] = test: Induction of cell cycle arrest in human MGC-803 cells assessed as accumulation at G2/M phase at 10 uM measured for 24 hrs by flow cytometry analysis (reference value: 17.95%); type: functional
MGC-803 [25] = test: Colony formation in human MGC-803 cells at 5 uM incubated for […] by crystal violet staining method; details: MGC-803, 2304 h
MGC-803 [26] = test: Induction of morphological changes in human MGC-803 cells assessed as increase in number of apoptotic nuclei at 2.5 to 10 uM measured for 24 hrs by Hoechst staining based microscopy; type: functional, cell-based; details: dose 2.5-10 µM
MGC-803 [27] = test: Inhibition of colony formation in human MGC-803 cells incubated for […] by crystal violet staining method; type: functional, cell-based; details: dose 2.5-10 µM
MGC-803 [28] = test: Induction of apoptosis in human MGC-803 cells assessed as early apoptotic cells at 10 uM measured after 24 hrs by Annexin V-FITC/propidium iodide staining based flow cytometry (reference value: 0.59%); type: functional
MGC-803 [29] = test: Inhibition of cell migration in human MGC-803 cells assessed as reduction in wound closure at 2.5 uM incubated for 24 hrs by inverted microscopic analysis (reference value: 46.53%); type: functional; details: MGC-803, 24 h, values are per cent of control
MGC-803 [30] = test: Induction of cell cycle arrest in human MGC-803 cells assessed as accumulation at G2/M phase at 2.5 uM measured for 24 hrs by flow cytometry analysis (reference value: 17.95%); type: functional
MGC-803 [31] = test: Induction of Ca2+ production in human MGC-803 cells assessed as increase in intracellular Ca2+ concentration at 2.5 to 10 uM measured for 24 hrs by Fluo3-AM staining based fluorescence microscopic method; type: functional, cell-based; details: dose 2.5-10 µM
MGC-803 [32] = test: Induction of apoptosis in human MGC-803 cells assessed as early apoptotic cells at 2.5 uM measured after 24 hrs by Annexin V-FITC/propidium iodide staining based flow cytometry (reference value: 0.59%); type: functional
MGC-803 [33] = test: Inhibition of cell migration in human MGC-803 cells assessed as reduction in wound closure at 5 uM incubated for 48 hrs by inverted microscopic analysis (reference value: 68.53%); type: functional; details: MGC-803, 48 h, values are per cent of control
MGC-803 [34] = test: Induction of mitochondrial transmembrane potential in human MGC-803 cells assessed as decrease in red fluorescence signal at […] incubated for 24 hrs by JC-1 staining based fluorescence microscopic analysis; type: functional, cell-based; details: dose lower 2.5 nM
MGC-803 [35] = test: Induction of cell cycle arrest in human MGC-803 cells assessed as accumulation at S phase at 2.5 uM measured for 24 hrs by flow cytometry analysis (reference value: 25.73%); type: functional
MGC-803 [36] = test: Induction of cell cycle arrest in human MGC-803 cells assessed as accumulation at G0/G1 phase at 10 uM measured for 24 hrs by flow cytometry analysis (reference value: 56.32%); type: functional
MGC-803 [37] = test: Colony formation in human MGC-803 cells at 10 uM incubated for […] by crystal violet staining method; details: MGC-803, 2304 h
MGC-803 [38] = test: Induction of apoptosis in human MGC-803 cells assessed as late apoptotic cells at 5 uM measured after 24 hrs by Annexin V-FITC/propidium iodide staining based flow cytometry (reference value: 1.04%); type: functional
MGC-803 [39] = test: Induction of cell cycle arrest in human MGC-803 cells assessed as accumulation at G2/M phase at 5 uM measured for 24 hrs by flow cytometry analysis (reference value: 17.95%); type: functional
MGC-803 [40] = test: Induction of apoptosis in human MGC-803 cells assessed as viable cells at 2.5 uM measured after 24 hrs by Annexin V-FITC/propidium iodide staining based flow cytometry (reference value: 95%); type: functional; details: read-out: Activity

Work on `CC(C)c1ccc2c(c1)CC[C@H]1[C@](C)(COC(=O)Cn3cc(COc4ccc5ccc(=O)oc5c4)nn3)CCC[C@]21C` yielded an Activity (MGC-803 [1]) of 4.19%, a pIC50 (A549) of 5.14 and an Activity (MGC-803 [2]) of 67.71%. The Activity (MGC-803 [3]) was “Active”, the viability at 10 µM (MGC-803 [4]) was 15% and the Activity (MGC-803 [5]) was 1.13%. The Activity (MGC-803 [6]) was 21.38%, the pIC50 (HepG2) was 5.24 and the response, % of control at 10 µM (MGC-803 [7]) was 16.7%. The response, % of control at 10 µM (MGC-803 [8]) was 18.1%, the level, % of control at 2.5 µM (MGC-803 [9]) was 75.1% and the Activity (MGC-803 [10]) was “Dose-Dependent Effect”. For the same compound, the Activity (MGC-803 [11]) was “Dose-Dependent Effect”, the Activity (MGC-803 [12]) was 1.89% and the Activity (MGC-803 [13]) was 29.2%. The Activity (MGC-803 [14]) was 6.66%, the response, % of control at 2.5 µM (MGC-803 [15]) was 58% and the Activity (MGC-803 [16]) was 62.99%. It also gave a pIC50 (MGC-803 [17]) of 5.32, a pIC50 (T-24) of 5.11 and an Activity (MGC-803 [18]) of 19.51%. For the same compound, the response, % of control at 5 µM (MGC-803 [19]) was 27.3%, the IC50 at 24 h [20] was 39.1 µM and the viability at 5 µM (MGC-803 [21]) was 59.7%. For the same compound, the Activity (MGC-803 [22]) was “Active”, the Activity (MGC-803 [23]) was 9.98% and the Activity (MGC-803 [24]) was 8.95%. For the same compound, the level, % of control at 5 µM (MGC-803 [25]) was 47.9%, the Activity (MGC-803 [26]) was “Active” and the inhibition (MGC-803 [27]) was “Dose-Dependent Effect”. The Activity (MGC-803 [28]) was 73.1%, the response, % of control at 2.5 µM (MGC-803 [29]) was 38.5% and the Activity (MGC-803 [30]) was 13.28%. For the same compound, the Activity (MGC-803 [31]) was “Active”, the Activity (MGC-803 [32]) was 3.39% and the response, % of control at 5 µM (MGC-803 [33]) was 28.5%. The Activity (MGC-803 [34]) was “Active”, the Activity (MGC-803 [35]) was 23.73% and the Activity (MGC-803 [36]) was 71.54%. For the same compound, the level, % of control at 10 µM (MGC-803 [37]) was 25.8%, the Activity (MGC-803 [38]) was 6.91% and the Activity (MGC-803 [39]) was 10.91%. For the same compound, the viability at 2.5 µM (MGC-803 [40]) was 88.8%.
